Results published in paper PMC10817917, “Alkyl deoxyglycoside-polymyxin combinations against critical priority carbapenem-resistant gram-negative bacteria” (Scientific Reports, 2024).
“And” between values parts separate entries of the source, which are not always exact repeats. Equal values may be shown once. Read-outs that look alike come from different tables or passages of the source.

What was measured:
[1] = system: A. baumannii CQ4322; assay: Broth microdilution MIC/MBC, glycosides with or without polymyxins; type: cell-based, Acinetobacter baumannii; conditions: for MIC: Acinetobacter baumannii, CQ4322
[2] = system: K. pneumoniae CQ1942; assay: Broth microdilution MIC, glycosides with or without polymyxins; type: cell-based, Klebsiella pneumoniae; conditions: for MIC: Klebsiella pneumoniae, CQ1942
[3] = system: E. coli NCTC 13846; assay: Broth microdilution MIC/MBC, glycosides with or without polymyxins; type: cell-based, Escherichia coli; conditions: strain B
[4] = system: E. coli ATCC 25922; assay: as above; type: cell-based, Escherichia coli; conditions: for MIC: Escherichia coli, ATCC25922
[5] = system: Caco-2 cells; assay: Resazurin cell viability assay (cytotoxicity); type: cell-based, human; conditions: Homo sapiens, Caco-2, 72 h, read-out: IC50
Method: (§1) Cytotoxicity of each compound alone or in combination with different polymyxin concentrations was evaluated through the resazurin cell viability assay[49] in human embryonic HEK-293T cells, as well as in human colon adenocarcinoma Caco-2 cells, after a 72-h long incubation period.
(§2) HEK-293T and Caco-2 cells were grown in RPMI 1640 medium (VWR) supplemented with 10% FBS (Biowest), 1% PenStrep (Sigma Aldrich), and 1% glutamine (Biowest) in a humidified incubator at 37 °C with a 5% CO2 atmosphere. Twice a week, the medium was aspirated, the cells were washed with DPBS (VWR), trypsinized with trypsin–EDTA solution (Biowest), and resuspended in fresh culture medium. The dose-dependent effects of each glycoside or glycoside-polymyxin combination were evaluated by the resazurin cell viability assay. Polymyxins (colistin sulfate and PMB sulfate for microbiological assays, European Pharmacopoeia Reference Standards, Sigma-Aldrich) were firstly dissolved in sterilized Mili-Q water to a stock concentration of 1 mg/mL, while glycosides were dissolved in DMSO to a stock concentration of 30 mM. 1.5 × 10^4 cells/well in 96.5 µL of medium were seeded onto 96-well plates and incubated at 37 °C for 24 h. For each compound, ten stock dilutions (with concentrations from 750 to 75 µM) were prepared in fresh medium immediately prior to incubation. 16 µL of each dilution were added to each well so that the final glycoside concentrations ranged from 100 to 10 µM in each row in a final assay volume of 120 µL. In addition, the previously prepared polymyxin stock solutions were diluted in fresh medium, affording new stocks of 8, 4, and 2 µg/mL. The same volume (7.5 µL/well) of PMB or colistin was then added to each row to achieve a final polymyxin concentration of 0.5, 0.25, and 0.125 µg/mL, respectively, regardless of the glycoside concentration. In assays without polymyxin, the same volume (7.5 µL/well) of medium was added. In all assays, the maximum DMSO concentration was 0.33%. After a 72-h incubation at 37 °C, 12 µL of a 0.15 mg/mL resazurin (Sigma-Aldrich) in sterilized Mili-Q water were added to each well, and the plates were left incubating for another 4 h at 37 °C. Resorufin was measured at 570/600 nm, and the percentage of resazurin reduction, corresponding to the cell viability percentage, was calculated according to Eq. (1)[60]. IC50 values were obtained by best fitting the dose-dependent inhibition curves using the Prism 9® software. The results were expressed as the mean ± SD of three independent replicates, with only data from analysis with R^2 > 0.90 being considered.1 %Cellviability=Abssample-Absmediumcontrol/Abscellcontrol-Absmediumcontrol×100

[6] = system: HEK-293T cells; assay: Resazurin cell viability assay (cytotoxicity); type: cell-based, human; conditions: 72 h, read-out: IC50
Method: as §1, §2

[7] = alone, read-out: MICA (MIC of each compound individually)
[8] = combination with the lowest FICI
[9] = compound + colistin, lowest FICI

MIC ([1]; agent alone, no adjuvant (polymyxin conc. 0), strain G, read-out: MIC): > 100 µg/mL
MIC [1, 7]: > 100 µg/mL
MIC of colistin in combination with the compound ([1]; Cpd conc. 0.4 μg/mL, strain G): > 0.5 µg/mL
MIC of colistin in combination with the compound ([1]; Cpd conc. 0.8 μg/mL, strain G): 0.5 µg/mL
MIC of colistin in combination with the compound ([1]; Cpd conc. 3.125 μg/mL, strain G): 0.25 µg/mL
MIC of colistin in combination with the compound ([1]; Cpd conc. 6.25 μg/mL, strain G): 0.25 µg/mL
MIC of colistin in combination with the compound ([1]; Cpd conc. 12.5 μg/mL, strain G): 0.25 µg/mL
MIC of colistin in combination with the compound ([1]; Cpd conc. […], strain G): 0.5 µg/mL
MIC of compound in combination with PMB ([1]; PMB 0.25 μg/mL, strain G): > 100 µg/mL
MIC of compound in combination with PMB ([1]; PMB 0.5 μg/mL, strain G): 3.1 µg/mL
MIC of compound in combination with colistin ([1]; colistin 0.06 μg/mL, strain G): > 100 µg/mL
MIC of compound in combination with colistin ([1]; colistin 0.125 μg/mL, strain G): 25 μg/mL and 25|25 μg/mL
MIC of compound in combination with colistin ([1]; colistin 0.25 μg/mL, strain G): 3.1 µg/mL
MIC of compound in combination with colistin ([1]; colistin 0.5 μg/mL, strain G): 0.8 µg/mL
MICA(A + B) (MIC of compound in combination with colistin) [1, 8]: 25 µg/mL
MICB(A + B) (MIC of colistin in combination with compound) [1, 8]: 0.125 µg/mL
MIC of colistin in combination with the compound ([2]; Cpd conc. 0.4 μg/mL, strain E): 0.5 µg/mL
MIC of colistin in combination with the compound ([2]; Cpd conc. 0.8 μg/mL, strain E): 0.5 µg/mL
MIC of colistin in combination with the compound ([2]; Cpd conc. 3.125 μg/mL, strain E): 0.25 µg/mL
MIC of colistin in combination with the compound ([2]; Cpd conc. 6.25 μg/mL, strain E): 0.25 µg/mL
MIC of colistin in combination with the compound ([2]; Cpd conc. 12.5 μg/mL, strain E): 0.25 µg/mL
MIC of colistin in combination with the compound ([2]; Cpd conc. […], strain E): 0.5 µg/mL
MIC ([2]; agent alone, no adjuvant (polymyxin conc. 0), strain E, read-out: MIC): > 100 µg/mL
MIC [2, 7]: > 100 µg/mL
MIC of compound in combination with PMB ([2]; PMB 0.25 μg/mL, strain E): > 100 µg/mL
MIC of compound in combination with PMB ([2]; PMB 0.5 μg/mL, strain E): 1.6 µg/mL
MIC of compound in combination with colistin ([2]; colistin 0.06 μg/mL, strain E): > 100 µg/mL
MIC of compound in combination with colistin ([2]; colistin 0.125 μg/mL, strain E): > 100 µg/mL
MIC of compound in combination with colistin ([2]; colistin 0.5 μg/mL, strain E): ≤ 0.1 µg/mL
MICA(A + B) (MIC of compound in combination with colistin) [2, 8]: 3.125 µg/mL
MICB(A + B) (MIC of colistin in combination with compound) [2, 8]: 0.25 µg/mL
MIC of colistin in combination with the compound ([3]; Cpd conc. 0.4 μg/mL): > 0.5 µg/mL
MIC of colistin in combination with the compound ([3]; Cpd conc. 0.8 μg/mL): > 0.5 µg/mL
MIC of colistin in combination with the compound ([3]; Cpd conc. 3.125 μg/mL): > 0.5 µg/mL
MIC of colistin in combination with the compound ([3]; Cpd conc. 6.25 μg/mL): > 0.5 µg/mL
MIC of colistin in combination with the compound ([3]; Cpd conc. 12.5 μg/mL): > 0.5 µg/mL
MIC of colistin in combination with the compound ([3]; Cpd conc. […]): > 0.5 µg/mL
MIC ([3]; Escherichia coli, NCTC13846, agent alone, no adjuvant (polymyxin conc. 0), read-out: MIC): > 100 µg/mL
MIC of compound in combination with PMB ([3]; PMB 0.25 μg/mL): > 100 µg/mL
MIC of compound in combination with PMB ([3]; PMB 0.5 μg/mL): > 100 µg/mL
MIC of compound in combination with colistin ([3]; colistin 0.06 μg/mL): > 100 µg/mL
MIC of compound in combination with colistin ([3]; colistin 0.125 μg/mL): > 100|> 100 μg/mL
MIC of compound in combination with colistin ([3]; colistin 0.25 μg/mL): > 100 µg/mL
MIC of compound in combination with colistin ([3]; colistin 0.5 μg/mL): > 100 µg/mL
MIC of colistin in combination with the compound ([4]; Cpd conc. 0.4 μg/mL, strain A): > 0.5 µg/mL
MIC of colistin in combination with the compound ([4]; Cpd conc. 0.8 μg/mL, strain A): > 0.5 µg/mL
MIC of colistin in combination with the compound ([4]; Cpd conc. 3.125 μg/mL, strain A): 0.25 µg/mL
MIC of colistin in combination with the compound ([4]; Cpd conc. 6.25 μg/mL, strain A): 0.125 µg/mL
MIC of colistin in combination with the compound ([4]; Cpd conc. 12.5 μg/mL, strain A): ≤ 0.06 µg/mL
MIC of colistin in combination with the compound ([4]; Cpd conc. […], strain A): 0.5 µg/mL
MIC ([4]; agent alone, no adjuvant (polymyxin conc. 0), strain A, read-out: MIC): > 100 µg/mL
MIC [4, 7]: > 100 µg/mL
MIC of compound in combination with PMB ([4]; PMB 0.25 μg/mL, strain A): 3.1 µg/mL
MIC of compound in combination with PMB ([4]; PMB 0.5 μg/mL, strain A): 3.1 µg/mL
MIC of compound in combination with colistin ([4]; colistin 0.06 μg/mL, strain A): 12.5 µg/mL
MIC of compound in combination with colistin ([4]; colistin 0.125 μg/mL, strain A): 6.3 μg/mL and 6.3|6.3 μg/mL
MIC of compound in combination with colistin ([4]; colistin 0.25 μg/mL, strain A): 3.1 µg/mL
MIC of compound in combination with colistin ([4]; colistin 0.5 μg/mL, strain A): 1.6 µg/mL
MICA(A + B) (MIC of compound in combination with colistin) [4, 8]: 12.5 µg/mL
MICB(A + B) (MIC of colistin in combination with compound) [4, 8]: 0.06 µg/mL
SMILES: CCCCCCCCCCCC[C@H]1O[C@H](C)C[C@H](O)[C@H]1O [Compound 5, 1-(4,6-dideoxy-α-D-xylo-hexopyranosyl)dodecane]
MBC of compound in combination with colistin ([1]; colistin 0.125 μg/mL, strain G): 25|25 μg/mL
FICI [1, 9]: 0.38
Interpretation (of FICI) ([2]; compound + colistin): Additive (from 0.5 to 1.0 were additive)
FICI [2, 9]: 0.52
MBC of compound in combination with colistin ([3]; colistin 0.125 μg/mL): > 100|> 100 μg/mL
MBC of compound in combination with colistin ([4]; colistin 0.125 μg/mL, strain A): 6.3|6.3 μg/mL
Interpretation (of FICI) ([4]; compound + colistin): Synergy (Values ≤ 0.5 were considered synergistic)
FICI [4, 9]: 0.18
IC50 ([5]; Colistin 0.25 μg/mL): 64.9 ± 0.98 µM
IC50 ([5]; Colistin 0.5 μg/mL): 64.1 ± 1.09 µM
IC50 ([5]; No polymyxin): 62.4 ± 1.22 µM
IC50 ([5]; PMB 0.25 μg/mL): 61.1 ± 1.06 µM
IC50 ([5]; tested alone (no polymyxin adjuvant)): 18.7 µg/mL
IC50 ([6]; Homo sapiens, HEK-293T, Colistin 0.125 μg/mL): 79.7 ± 1.05 µM
IC50 ([6]; Homo sapiens, HEK-293T, Colistin 0.25 μg/mL): 78.6 ± 3.28 µM
IC50 ([6]; Homo sapiens, HEK-293T, Colistin 0.5 μg/mL): 80 ± 1.69 µM
IC50 ([6]; Homo sapiens, HEK-293T, No polymyxin): 79.74 ± 0.53 µM
IC50 ([6]; Homo sapiens, HEK-293T, PMB 0.125 μg/mL): 79.2 ± 2 µM
IC50 ([6]; Homo sapiens, HEK-293T, PMB 0.25 μg/mL): 79.4 ± 1.58 µM
IC50 ([6]; Homo sapiens, HEK-293T, PMB 0.5 μg/mL): 83.2 ± 0.96 µM
IC50 ([6]; Homo sapiens, HEK-293T, tested alone (no polymyxin adjuvant)): 24 µg/mL
IC50 ([6]; No polymyxin): 79.7 µM
